Data on 13 compounds can be found in patent US20070082055A1, “Stable micronized candesartan cilexetil and methods for preparing thereof” (priority 2005, published 2007).

Molecules are shown by their SMILES. Values joined by “and” are separate entries in the source; they are usually repeats but may differ in a detail not shown here. Equal entries are not always repeated. Where two headings read alike, the source gives them in different places.

The conditions of data set [1]: for Desethyl-CNS: as obtained.
For data set [2] the following is noted: cited from earlier work.
Setting [3] is: Table 3, after 2 weeks at 55° C.
The mark [4] stands for this setting: after maintaining for 2 weeks (oven at 55° C.).

For `CCOc1nc2cccc(C(=O)OC(C)OC(=O)OC3CCCCC3)c2n1Cc1ccc(-c2ccccc2-c2nnn[nH]2)cc1` (racemic) [Candesartan cilexetil, (±)-1-[[(cyclohexyloxy)carbonyl]oxy]ethyl-2-ethoxy-1-[[2′-(1H-tetrazol-5-yl)[1,1 ′biphenyl]-4-yl]methyl]-1H-benzimidazole-7-carboxylate], the CNS-desethyl is 0.07 w/w % in data set [1] (time of slurry 2 hr, 2 weeks); 0.03 w/w % in data set [1] (time of slurry 2 hr, T = 0); 0.03 w/w % in data set [1] (time of slurry 20 hr, 2 weeks); “LTDL (LTDL means less than detection limit)” in data set [1] (time of slurry 20 hr, T = 0). In addition, the solubility in methanol entry in data set [2] (methanol) is reported as “sparingly soluble”. For the same compound, the solubility in water entry in data set [2] (water) is reported as “sparingly soluble”.

On to `CCOc1nc2cccc(C(=O)OC(C)OC(=O)OC3CCCCC3)c2n1Cc1ccc(-c2ccccc2-c2nnn[nH]2)cc1` (centres unmarked) [Fine particle size, candesartan cilexetil], for which, in data set [1] (2 weeks, HPLC), the “2-N-ethyl CNS” value is 0.09 w/w % and 0.29 w/w %; the CNS desethyl was 0.14 w/w % and 0.41 w/w %. Moreover, in data set [1] (T = 0, HPLC), the CNS desethyl was 0.04 w/w % and 0.24 w/w %.

For `CCOc1nc2cccc(C(=O)OC(C)OC(=O)OC3CCCCC3)c2n1Cc1ccc(-c2ccccc2-c2nnn[nH]2)cc1` (centres unmarked) [Product B, candesartan cilexetil], in data set [1] (setting [3]), the “1-N-ethyl CNS” value was “LTDL (LTDL means less than detection limit)”, the “2-N-ethyl CNS” value was 0.03 w/w % and the CNS desethyl was 0.05 w/w %.

Consider `CCOc1nc2cccc(C(=O)OC(C)OC(=O)OC3CCCCC3)c2n1Cc1ccc(-c2ccccc2-c2nnn[nH]2)cc1` (centres unmarked) [Product, candesartan cilexetil], for which, in data set [1] (Table 3, before storage), the “1-N-ethyl CNS” value is “LTDL (LTDL means less than detection limit)”, the “2-N-ethyl CNS” value was 0.03 w/w % and the CNS desethyl was found to be 0.05 w/w %. Also, the “level of desethyl-CNS” value in data set [1] (before storage) is recorded as 0.05 % w/w by HPLC.

Regarding `CCOc1nc2cccc(C(=O)OC(C)OC(=O)OC3CCCCC3)c2n1Cc1ccc(-c2ccccc2-c2nnn[nH]2)cc1` (centres unmarked) [Sample 1, candesartan cilexetil], in data set [1] (Table 3, before storage), the “1-N-ethyl CNS” value is given as “LTDL (LTDL means less than detection limit)”, the “2-N-ethyl CNS” value was “LTDL (LTDL means less than detection limit)” and the CNS desethyl was found to be 0.04 w/w %.

On to `CCOc1nc2cccc(C(=O)OC(C)OC(=O)OC3CCCCC3)c2n1Cc1ccc(-c2ccccc2-c2nnn[nH]2)cc1` (centres unmarked) [Sample 1B, candesartan cilexetil], for which, in data set [1] (setting [3]), the “1-N-ethyl CNS” value worked out at 0.04 w/w %, the “2-N-ethyl CNS” value is given as 0.15 w/w % and the CNS desethyl was 0.20 w/w %.

Consider `CCOc1nc2cccc(C(=O)OC(C)OC(=O)OC3CCCCC3)c2n1Cc1ccc(-c2ccccc2-c2nnn[nH]2)cc1` (centres unmarked) [Slurried fine particle size sample, candesartan cilexetil], for which the CNS desethyl in data set [1] (2 weeks, HPLC) is 0.10 w/w % and 0.06 w/w %; in data set [1] (T = 0, HPLC), 0.08 w/w % and 0.03 w/w %.

With `CCOc1nc2cccc(C(=O)OC(C)OC(=O)OC3CCCCC3)c2n1Cc1ccc(-c2ccccc2-c2nnn[nH]2)cc1` (centres unmarked) [candesartan cilexetil Form I, candesartan cilexetil], the “level of desethyl-CNS” value in data set [1] (setting [4]) was 0.07 % w/w by HPLC. In data set [1] (before storage), this compound yielded a Desethyl-CNS of 0.03 % by area HPLC.

For the compound `CCOc1nc2cccc(C(=O)OC(C)OC(=O)OC3CCCCC3)c2n1Cc1ccc(-c2ccccc2-c2nnn[nH]2)cc1` (centres unmarked) [candesartan cilexetil], the CNS-desethyl in data set [1] (fine particle size, time of slurry 3 hr, 2 weeks) is 0.10 w/w %; in data set [1] (fine particle size, time of slurry 3 hr, T = 0), 0.07 w/w %; in data set [1] (fine particle size, time of slurry 6 hr, 2 weeks) it was 0.07 w/w %; in data set [1] (fine particle size, time of slurry 6 hr, T = 0), 0.06 w/w %; in data set [1] (fine particle size, time of slurry 9 hr, 2 weeks), 0.06 w/w %; in data set [1] (fine particle size, time of slurry 9 hr, T = 0) it was 0.05 w/w %. Further, the CNS-desethyl in data set [1] (fine particle size, time of slurry 13 hr, 2 weeks) is listed as 0.06 w/w %; in data set [1] (fine particle size, time of slurry 13 hr, T = 0), 0.05 w/w %; in data set [1] (fine particle size, time of slurry 23 hr, 2 weeks), 0.05 w/w %; in data set [1] (fine particle size, time of slurry 23 hr, T = 0), 0.04 w/w %.

As for `CCOc1nc2cccc(C(=O)OC(C)OC(=O)OC3CCCCC3)c2n1Cc1ccc(-c2ccccc2-c2nnn[nH]2)cc1` (centres unmarked) [micronized CNS-Cryst, candesartan cilexetil], the “level of desethyl-CNS” value in data set [1] (setting [4]) was 0.41 % w/w by HPLC; in data set [1] (before storage) it was 0.24 % w/w by HPLC.

Regarding `CCOc1nc2cccc(C(=O)OC(C)OC(=O)OC3CCCCC3)c2n1Cc1ccc(-c2ccccc2-c2nnn[nH]2)cc1` (centres unmarked) [micronized material, candesartan cilexetil], the “level of desethyl-CNS” value in data set [1] (setting [4]) was 0.14 % w/w by HPLC; in data set [1] (before storage), 0.04 % w/w by HPLC.

In the case of `CCOc1nc2cccc(C(=O)OC(C)OC(=O)OC3CCCCC3)c2n1Cc1ccc(-c2ccccc2-c2nnn[nH]2)cc1` (centres unmarked) [stable candesartan cilexetil Form I, candesartan cilexetil], the “level of desethyl-CNS” value in data set [1] (after maintaining for 2 weeks (oven at 55° C.), listed as obtained product) was 0.10 % w/w by HPLC. Moreover, the Desethyl-CNS in data set [1] (before storage) was determined as 0.08%.

Turning to `CCOc1nc2cccc(C(=O)OC(C)OC(=O)OC3CCCCC3)c2n1Cc1ccc(-c2ccccc2-c2nnn[nH]2)cc1` (centres unmarked) [stable micronized candesartan Form I, candesartan cilexetil], the desethyl-CNS level in data set [1] (after maintaining for 2 weeks) is given as 0.06 % area by HPLC. For the same compound, in data set [1] (before storage), the “level of desethyl-CNS” value is listed as 0.03 % w/w by HPLC.
